Assay results: article PMC12432127, “Assessing the potential of bacterial signal peptides for radiopharmaceutical applications” (Scientific Reports, 2025)
Where “and” joins values, the source holds several entries; their conditions need not be identical. Equal entries are not always repeated. Residues, ends and D or L forms follow the SMILES beside them. *: point of attachment. For = O=C*

How the values were obtained:
[1] = test system: U87-MG cells; assay: Calcium imaging (FLIPR) in U87-MG cells; type: cell-based, human; conditions: for Calicum signal (dF/F0): U87 cells
Method: (§1) Automated high-throughput Ca^2+ measurements using a fluorescence imaging plate reader (FLIPR, Molecular Devices) were performed. Briefly, […] were seeded in 96-well plates (~ 50,000 cells/well) one day before the experiments and incubated at 37 °C. HEK293T cells were co-transfected with the receptor or mock and the G protein Gα16 for 48 h. On the day of the experiments, the medium was removed, and the cells were loaded with a loading solution consisting of 2 µM Calbryte dye in C1 buffer (Calbryte 520AM, AAT Bioquest 20651) 50 µL per well, for at least 2 h at RT in the dark. After 2 h of loading with the fluorescent dye, the solution was removed, the plate was washed three times using an ELX50 washer (BioTek), and the intracellular release of calcium was measured using FLIPR. A Ca^2+ response was defined as an increase in the excitation ratio (340 nm/380 nm) that was at least four times higher than the mean baseline noise after bath application.
(§2) The results are expressed as the means ± standard deviations of the number of the indicated determinations. Calcium measurement experiments were routinely performed as triplicates and averaged over at least three independent transfections. Response amplitudes (F/F0) were calculated by dividing maximal fluorescence change after ligand application by baseline fluorescence. Maximal amplitudes were set to 100%, and curves were calculated with Graph Pad Prism Version 10.1 (GraphPad Software, Boston, MA, USA). S.D. values were calculated as averages from independently obtained EC50 values using the STDEV. Data derived from experiments were analyzed by two-way ANOVA. P < 0.05 was accepted as significant.

[2] = biological target: T1, human FPR3 (Homo sapiens, UniProt P25089); assay: High-throughput calcium imaging (FLIPR), FPR3 transfected HEK293T cells; type: cell-based; conditions: up to 10 µM
T1 construct: expressed in transfected cells; host or cells: HEK293T (transient, jetPEI)
T1 sequence (P25089 1-353): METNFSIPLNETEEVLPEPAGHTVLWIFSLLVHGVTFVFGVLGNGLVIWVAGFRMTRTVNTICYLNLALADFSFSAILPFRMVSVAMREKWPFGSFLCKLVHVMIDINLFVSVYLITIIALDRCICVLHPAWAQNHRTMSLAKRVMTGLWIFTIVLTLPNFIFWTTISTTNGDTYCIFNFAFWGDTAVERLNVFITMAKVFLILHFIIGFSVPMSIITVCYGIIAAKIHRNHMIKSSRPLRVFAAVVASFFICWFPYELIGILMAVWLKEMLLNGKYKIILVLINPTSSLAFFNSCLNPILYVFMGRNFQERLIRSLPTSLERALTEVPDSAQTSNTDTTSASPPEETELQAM
Method: (§3) Cell transfection was performed approximately 24 h after seeding the cells, when they reached about 70% confluence. Transfection was carried out using jetPEI™ (Polyplus) according to the following protocol: 0.25 µg DNA was diluted in 10 µL NaCl (150 mM). 0.5 µL of jetPEI™ solution in 10 µL NaCl was mixed with the DNA solution and incubated at RT for 15–30 min. After incubation, 20 µL of the jetPEI™/DNA mixture was added dropwise to the cells, which were then placed in the cell culture incubator at 37 °C and 5% CO2. After 18 to 24 h of transfection, the medium was replaced, and 100 µL per well was added, then placed back in the incubator.
(§4) Automated high-throughput Ca^2+ measurements using a fluorescence imaging plate reader (FLIPR, Molecular Devices) were performed. […] After 2 h of loading with the fluorescent dye, the solution was removed, the plate was washed three times using an ELX50 washer (BioTek), and the intracellular release of calcium was measured using FLIPR. […]
(§5) The results are expressed as the means ± standard deviations of the number of the indicated determinations. […] Response amplitudes (F/F0) were calculated by dividing maximal fluorescence change after ligand application by baseline fluorescence. Maximal amplitudes were set to 100%, and curves were calculated with Graph Pad Prism Version 10.1 (GraphPad Software, Boston, MA, USA). […]

[3] = biological target: T2, FPR1 (Homo sapiens, UniProt P21462); assay: High-throughput calcium imaging (FLIPR), FPR1 transfected HEK293T cells; type: cell-based; conditions: for Calicum signal (dF/F0): FPR1-HEK
T2 construct: expressed in transfected cells; host or cells: HEK293T (transient, jetPEI)
T2 sequence (P21462 1-350): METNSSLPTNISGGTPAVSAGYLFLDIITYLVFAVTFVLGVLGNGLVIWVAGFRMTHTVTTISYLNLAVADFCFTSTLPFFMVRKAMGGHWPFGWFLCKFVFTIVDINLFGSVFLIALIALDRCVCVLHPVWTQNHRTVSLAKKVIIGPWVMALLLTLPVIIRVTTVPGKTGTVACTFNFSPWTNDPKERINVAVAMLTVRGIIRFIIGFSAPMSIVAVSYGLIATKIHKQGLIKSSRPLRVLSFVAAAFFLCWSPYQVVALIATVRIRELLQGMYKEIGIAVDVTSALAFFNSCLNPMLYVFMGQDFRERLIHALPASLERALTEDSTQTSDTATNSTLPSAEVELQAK
Method: as §3, §1, §2

[4] = biological target: T3, human FPR2 (Homo sapiens, UniProt P25090); assay: High-throughput calcium imaging (FLIPR), FPR2 transfected HEK293T cells; type: cell-based; conditions: read-out: EC50 Ca2+ mobilization
T3 construct: expressed in transfected cells; host or cells: HEK293T (transient, jetPEI)
T3 sequence (P25090 1-351): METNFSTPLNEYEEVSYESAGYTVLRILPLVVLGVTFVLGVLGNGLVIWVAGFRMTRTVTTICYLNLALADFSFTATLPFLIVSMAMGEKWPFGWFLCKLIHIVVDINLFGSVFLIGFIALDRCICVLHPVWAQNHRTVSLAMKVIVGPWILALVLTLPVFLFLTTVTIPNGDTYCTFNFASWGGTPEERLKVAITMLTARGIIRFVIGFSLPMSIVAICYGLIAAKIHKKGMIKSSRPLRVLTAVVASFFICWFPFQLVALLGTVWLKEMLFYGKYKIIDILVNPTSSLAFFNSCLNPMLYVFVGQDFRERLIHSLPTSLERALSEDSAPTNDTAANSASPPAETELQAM
Method: as §3, §4, §5

[5] = Log Concentration (M) -6,5, single replicate values
[6] = Log Concentration (M) -6, single replicate values
[7] = Log Concentration (M) -7,5, single replicate values
[8] = Log Concentration (M) -7, single replicate values
[9] = Log Concentration (M) -8,5, single replicate values
[10] = Log Concentration (M) -8, single replicate values
[11] = Log Concentration (M) -9, single replicate values

CC[C@H](C)[C@H](NC(=O)[C@H](CCCCN)NC(=O)[C@@H](NC(=O)[C@@H]1CCCN1C(=O)[C@@H](NC(=O)[C@H](CCSC)NC=O)C(C)C)[C@@H](C)CC)C(=O)O [f-MVPIKI] (For-MVPIKI-OH; C-terminus assumed)
EC50 ([1]; U87-MG cells, read-out: EC50 Ca2+ flux): 5.3 ± 2.4 nM
Calicum signal (dF/F0) [1, 5]: 1,19 (2×) and 0,99 and 1,7 and 1,4
Calicum signal (dF/F0) [1, 6]: 1,22 and 1,13 and 1,2 and 1,14 and 1,1
Calicum signal (dF/F0) [1, 7]: 1 and 0,95 and 0,98 and 1,12 and 1,1
Calicum signal (dF/F0) [1, 8]: 1 and 1,1 and 1,2 and 1,18 and 0,99
Calicum signal (dF/F0) [1, 9]: 0,66 (2×) and 0,69 and 0,6 and 0,47
Calicum signal (dF/F0) [1, 10]: 0,9 and 0,98 and 0,94 and 1,3 and 1,07
Calicum signal (dF/F0) ([1]; Log Concentration (M) -9,5, single replicate values): 0,01 and 0,08 and 0,09 and 0,1 and 0,3
Calicum signal (dF/F0) [1, 11]: 0,14 and 0,23 and 0,2 and 0,12 and 0,38
activation of FPR3 (calcium) [2]: did not activate FPR3 at any tested concentration
Calicum signal (dF/F0) [3, 5]: 0,85 (2×) and 0,92
Calicum signal (dF/F0) [3, 6]: 0,75 and 0,94 and 0,85
Calicum signal (dF/F0) [3, 7]: 0,71 and 0,77 and 0,68
Calicum signal (dF/F0) [3, 8]: 0,57 and 0,86 and 0,73
Calicum signal (dF/F0) [3, 9]: 0,27 and 0,32 and 0,34
Calicum signal (dF/F0) [3, 10]: 0,65 and 0,63 and 0,6
Calicum signal (dF/F0) [3, 11]: 0,18 and 0,24 and 0,22
EC50 ([3]; FPR1 transfected HEK293T cells, peak calcium response, read-out: EC50 Ca2+ mobilization): 4.3 ± 2.4 nM
preference for FPR1 over FPR2 (calcium EC50) ([3]; FPR1 vs FPR2): approximately 14 fold
EC50 [4]: 60 ± 0.76 nM
